According to US4461895A, “Dibenzo(de,g)quinolines” (Warner-Lambert Company, priority 1981, dated 1984):

What was measured:
toxicity in mice (LD50) = details: mouse, in vivo
From the text: (§1) The following Table summarises some of the animal experimental results obtained: […]

cats = assay: coughing experiment according to Domenjoz on cats (antitussive effect); format: in vivo
From the text: The new compounds thereby considerably exceed the known antitussive action of 5,6,6a,7-tetrahydro-1,2,9,10-tetramethoxy-5-methyl-4H-dibenzo(de,g)quinoline (glaucine) with regard to the strength and length of activity.
as §1

| SMILES | LD50 (toxicity in mice (LD50); iv) [mg/kg] | LD50 (toxicity in mice (LD50); po, ig.) [mg/kg] | LD50 (toxicity in mice (LD50); sc.) [mg/kg] | antitussive effect: duration of cough inhibition (cats; 1.0 mg./kg., i.v.) [min] | antitussive effect: duration of cough inhibition (cats; 6.25 mg./kg., id.) [min] | antitussive effect: duration of cough inhibition (cats; 6.25 mg./kg., sc.) [min] | antitussive effect: duration of cough inhibition (cats; 2.0 mg./kg., i.v.) [min] | antitussive effect: duration of cough inhibition (cats; 4.0 mg./kg., id.) [min] | antitussive effect: cough inhibition (cats; 10.0 mg./kg., sc., result in words) |
| --- | --- | --- | --- | --- | --- | --- | --- | --- | --- |
| C=CCN1CCc2cc(OC)c(OC)c3c2C1Cc1cc(OC)c(OC)cc1-3 (single isomer, unassigned; (+)) [Example 1, (+)-6-Allyl-5,6,6a,7-tetrahydro-1,2,9,10-tetramethoxy-4H-dibenzo(de,g)quinoline] | 150 | ~1200 | 150 | 20 | 90 | 40 | – | – | – |
| COc1cc2c(cc1OC)-c1c(OC)c(OC)cc3c1C(C2)N(C)CC3 (stereo not drawn) [glaucine] | 58.3 | 531 | 20 | – | – | – | 10 | 40 | no cough |
